Assay results from paper PMC6821791, “Phase I Trial of Pyragrel, a Novel Thromboxane Synthetase Inhibitor, to Evaluate the Safety, Tolerability, and Pharmacokinetics in Healthy Volunteers” (Frontiers in Pharmacology, 2019).

Tests used:
Format in all cases: in vivo, human
[1] = Part II saline-volume-changed study, plasma pharmacokinetics; details: single-dose infusion of 240 mg pyragrel diluted in 250 ml saline, n=4
Protocol: (§1) Pyragrel administration regimens are as follows: In the single-escalating-dose study (Part I), a total of 52 subjects are enrolled to receive one of three treatments (pyragrel, ozagrel, or placebo, diluted in 500 Ml normal saline) as a 3-h i.v. infusion. Six dose levels of pyragrel (30, 60,120, 180, 240, 300 mg) were intravenously infused to healthy subjects. Of the 12 subjects each at the first three dose groups (30, 60, and 120 mg), 8 received pyragrel, 2 received ozagrel (80 mg), and 2 received placebo. Eight subjects were assigned as 4/2/2 for pyragrel, ozagrel, and placebo at the 180 mg level. Only four subjects were enrolled at the 240- and 300-mg group each; all received pyragrel. […] In the saline-volume-changed study (Part II), the safety and pharmacokinetics of pyragrel were assessed by decreasing the volume of dilution saline. Four subjects received a single 3 h infusion of pyragrel 240 mg diluted in 250 ml saline instead of the 500 ml used in Part I. Blood samples were collected at multiple time points before and after the initiation of the infusion in Part I and Part II; 15 blood samples were predetermined as follows: before drug administration (time 0), 0.5, 1, 2, 3 (4 samples collected during infusion), 3.25, 3.5, 4, 5, 7, 9, 11, 15, 24, and 48 h (10 samples collected post infusion) after the initiation of the infusion. In the multiple-dose study (Part III), 12 subjects received a single 3 h infusion of 180 mg pyragrel (diluted in 250 ml saline) on Day 1 and Day 6 and twice 3 h infusion of 180 mg pyragrel from Day 2 to 5; 14 blood samples were collected on Day 1 and Day 6 before drug administration (0 h), 0.5, 1, 2, 3, 3.25, 3.5, 4, 5, 7, 9, 11, 15, 24 h after the initiation of the infusion; moreover, 5 ml cubital vein blood was collected each time right before pyragrel infusion on Day 2 to Day 5. In the 3×3 crossover study (Part IV), 12 subjects were randomized to receive each of the three dosing groups (60, 120, or 240 mg) of pyragrel (diluted with 250 ml saline, 3 h infusion) per period, with a 7-day washout period between doses. Sixteen blood samples were collected as follows: before drug administration (0 h), 0.17, 0.35, 0.5, 1, 2, 3, 3.25, 3.5, 4, 5, 7, 9, 11, 15, and 24 h after the initiation of the infusion at each period. In the prolonged infusion study (Part V), four subjects received continuous 24 h infusion of pyragrel 360 mg (diluted in 600 ml saline); 19 blood samples were collected as follows: before drug administration (0 h), 0.25, 0.5, 1, 2, 4, 8, 12, 16, 20 (nine samples collected during administration), 24.25, 24.5, 25, 26, 28, 30, 32, 36, and 48 h after the initiation of the infusion (details shown in Figure 1 ). In all five cohorts, 5 ml of cubital vein blood was collected with a sodium heparin anticoagulant tube and centrifuged at 3000 r·min^-1. Each plasma sample was divided into two aliquots and stored at −20°C until further bioanalysis. […] Briefly, 10 µl of the extract drug from […] was injected onto a Zorbax EcLipse XDB C18 column (2.1 mm × 150 mm, 5 μm) (Agilent, USA) using isocratic elution with a mobile phase composed of methanol, water, and formic acid (65:35:0.1, v/v/v). Determination of the analytes was achieved by tandem-mass spectrometry with positive electrospray ionization.
(§2) Pharmacokinetic parameters were calculated using the noncompartmental model (NCA module), WinNonlin 6.1 (Pharsight Corporation, Mountain View, CA, USA). Statistical analysis was performed with SPSS 18. The actual dosing and sampling times were utilized in the analysis. Pharmacokinetic parameters were summarized by dose regimens using descriptive statistics, including n, mean, and the coefficient of variation (CV). For Tmax, only n, min, median, and max were reported.

[2] = Part IV 3×3 crossover study, plasma pharmacokinetics
Protocol: as §1, §2
In Part IV, a multivariate ANOVA model containing subjects, treatments (60, 120, or 240 mg), periods, and gender was used to analyze log-transformed Cmax and AUC. Tmax was analyzed using various related Friedman nonparametric tests.

[3] = Part V prolonged 24 h infusion study, plasma pharmacokinetics; details: for AUCINF / AUClast / Cl / Cmax / Tmax / Vz / t1/2: continuous i.v. infusion of pyragrel 360 mg within 24 h, plasma, n=4, mean ± SD
Protocol: as §1, §2

[4] = metabolite in plasma after pyragrel 60 mg, n=12
[5] = metabolite in plasma after pyragrel 120 mg, n=12
[6] = metabolite in plasma after pyragrel 240 mg, n=12
[7] = pyragrel 60 mg, 3 h infusion, plasma, n=12, mean ± SD
[8] = pyragrel 120 mg, 3 h infusion, plasma, n=12, mean ± SD
[9] = pyragrel 240 mg, 3 h infusion, plasma, n=12, mean ± SD

## COc1cc(CCC(=O)O)ccc1OCc1nc(C)c(C)nc1C [BBS]
[1]
  AUCINF: 10315.00 ± 5472.87 ng·h/mL
  AUClast: 10085.90 ± 5357.26 ng·h/mL
  Cl: 36.06 ± 33.86 L/h
  Cmax: 2066.22 ± 977.65 ng/mL
  MRTINF: 4.13 ± 0.70 h
  MRTlast: 3.50 ± 0.74 h
  Tmax: 3.19 ± 0.24 h
  Vz: 372.66 ± 424.67 L
  t1/2: 6.31 ± 1.38 h
  λz: 0.11 ± 0.03 h⁻¹
[2]; [4]
  AUCINF: 1882.93 ± 534.37 µg·h/L
  AUClast: 1821.9 ± 496.75 µg·h/L
  Cl: 34.77 ± 11.33 L/h
  Cmax: 373.16 ± 101.22 ng/mL
  Tmax: 3.29 ± 0.18 h
  Vz: 261.4 ± 115.98 L
  t1/2: 5.12 ± 1.17 h
[2]; [5]
  AUCINF: 4036.27 ± 1186.62 µg·h/L
  AUClast: 3969.83 ± 1184.3 µg·h/L
  Cl: 32.54 ± 10.86 L/h
  Cmax: 837.84 ± 228.5 ng/mL
  Tmax: 3.27 ± 0.17 h
  Vz: 250.94 ± 149.96 L
  t1/2: 5.08 ± 1.38 h
[2]; [6]
  AUCINF: 9572.13 ± 3748.80 µg·h/L
  AUClast: 9440.71 ± 3717.86 µg·h/L
  Cl: 30.04 ± 16.36 L/h
  Cmax: 2041.56 ± 684.12 ng/mL
  Tmax: 3.25 ± 0.18 h
  Vz: 212.93 ± 126.27 L
[3]
  AUCINF: 11,533 ± 3,946 h*µg·L^-1
  AUClast: 11,500 ± 3,952 h*µg·L^-1
  Cl: 34.11 ± 11.36 L/h
  Cmax: 566.1 ± 195.0 ng/mL
  Tmax: 18.06 ± 4.13 h
  Vz: 234.4 ± 89.53 L
  t1/2: 4.74 ± 0.65 h

## COc1cc(C=CC(=O)[O-])ccc1OCc1nc(C)c(C)nc1C.[Na+] [Pyragrel, sodium pyragrel]
[1]
  AUCINF: 9638.78 ± 1487.08 ng·h/mL
  AUClast: 9600.11 ± 1446.10 ng·h/mL
  Cl: 25.38 ± 4.18 L/h
  Cmax: 3360.73 ± 622.63 ng/mL
  MRTINF: 1.02 ± 0.33 h
  MRTlast: 0.90 ± 0.16 h
  Tmax: 3.00 ± 0.00 h
  Vz: 221.12 ± 75.68 L
  t1/2: 6.19 ± 2.63 h
  λz: 0.13 ± 0.04 h⁻¹
[2]; [7]
  AUCINF: 2,003.8 ± 318.7 h*µg·L^-1
  AUClast: 1,990.8 ± 317.9 h*µg·L^-1
  Cl: 30.65 ± 4.91 L/h
  Cmax: 641.2 ± 107.8 ng/mL
  Tmax: 2.75 ± 0.45 h
  Vz: 184.5 ± 80.37 L
  t1/2: 4.28 ± 1.84 h
[2]; [8]
  AUCINF: 4,325.2 ± 541.5 h*µg·L^-1
  AUClast: 4,317.4 ± 541.1 h*µg·L^-1
  Cl: 28.18 ± 3.83 L/h
  Cmax: 1505.6 ± 178.7 ng/mL
  Tmax: 2.58 ± 0.51 h
  Vz: 197.6 ± 77.76 L
  t1/2: 4.82 ± 1.63 h
[2]; [9]
  AUCINF: 9,292.8 ± 1,468.0 h*µg·L^-1
  AUClast: 9,279.1 ± 1,466.3 h*µg·L^-1
  Cl: 26.45 ± 4.34 L/h
  Cmax: 3165.7 ± 426.4 ng/mL
  Tmax: 2.92 ± 0.29 h
  Vz: 194.3 ± 72.28 L
  t1/2: 5.06 ± 1.58 h
[3]; at 4 h post-infusion
  Plasma concentration remaining, fraction of Cmax: 1/20
[3]
  AUCINF: 14,995 ± 2,494 h*µg·L^-1
  AUClast: 14,984 ± 2,497 h*µg·L^-1
  Cl: 24.47 ± 3.75 L/h
  Cmax: 861.7 ± 155.1 ng/mL
  Tmax: 14.00 ± 7.66 h
  Vz: 260.2 ± 144.4 L
  t1/2: 7.05 ± 3.74 h
[3]; listed as pyragrel
  AUCINF: 14,994.57 ± 2,493.9 h*µg·L^-1
  AUClast: 14,984.40 ± 2,496.64 h*µg·L^-1
  Cmax: 861.67 ± 155.05 ng/mL
